Legend:
Assay type in all cases: in vivo
Nightshade = assay: Test C preemergence; details: scale 0 to 100, 0 no effect, 100 complete control
Sunflower [1] = assay: Test C preemergence; details: Rate 125 g/ha; scale 0 to 100, 0 no effect, 100 complete control
[2] = system: Surinam grass (Brachiaria decumbens); assay: Test C preemergence; details: for Plant response rating, Surinam grass: scale 0 to 100, 0 no effect, 100 complete control; for Plant response rating (0 to 100), Surinam grass: preemergence, visual evaluation after 12 to 14 days
How it was run: (§1)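 Test chemicals, formulated in a non-phytotoxic solvent mixture with surfactant, were applied preemergence to planted seeds or postemergence to plants 2 to 18 cm tall (1- to 4-leaf stage). After 12 to 14 days in a greenhouse, injury was visually rated against untreated controls on a 0–100 scale.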

[3] = system: bermudagrass (Cynodon dactylon); assay: Test C preemergence; details: for Plant response rating, Bermudagrass: scale 0 to 100, 0 no effect, 100 complete control; for Plant response rating (0 to 100 where 0 is no effect and 100 is complete control), Bermudagrass: preemergence, visual evaluation after 12 to 14 days
How it was run: as §1

[4] = system: cocklebur (Xanthium strumarium); assay: Test C preemergence; details: for Plant response rating, Cocklebur: scale 0 to 100, 0 no effect, 100 complete control; for Plant response rating (0 to 100), Cocklebur: preemergence, visual evaluation after 12 to 14 days
How it was run: as §1

corn (Zea mays) = assay: Test C preemergence; details: for Plant response rating, Corn: scale 0 to 100, 0 no effect, 100 complete control; for Plant response rating (0 to 100), Corn: preemergence, visual evaluation after 12 to 14 days
How it was run: as §1

[5] = system: crabgrass (Digitaria sanguinalis); assay: Test C preemergence; details: for Plant response rating, Crabgrass: scale 0 to 100, 0 no effect, 100 complete control; for Plant response rating (0 to 100), Crabgrass: preemergence, visual evaluation after 12 to 14 days
How it was run: as §1

[6] = system: giant foxtail (Setaria faberii); assay: Test C preemergence; details: for Plant response rating, Foxtail, Giant: scale 0 to 100, 0 no effect, 100 complete control; for Plant response rating (0 to 100), Foxtail, Giant: preemergence, visual evaluation after 12 to 14 days
How it was run: as §1

[7] = system: goosegrass (Eleusine indica); assay: Test C preemergence; details: for Plant response rating, Goosegrass: scale 0 to 100, 0 no effect, 100 complete control; for Plant response rating (0 to 100), Goosegrass: preemergence, visual evaluation after 12 to 14 days
How it was run: as §1

[8] = system: johnsongrass (Sorghum halepense); assay: Test C preemergence; details: for Plant response rating, Johnsongrass: scale 0 to 100, 0 no effect, 100 complete control; for Plant response rating (0 to 100), Johnsongrass: preemergence, visual evaluation after 12 to 14 days
How it was run: as §1

kochia (Kochia scoparia) = assay: Test C preemergence; details: for Plant response rating, Kochia: scale 0 to 100, 0 no effect, 100 complete control; for Plant response rating (0 to 100), Kochia: preemergence, visual evaluation after 12 to 14 days
How it was run: as §1

[9] = system: lambsquarters (Chenopodium album); assay: Test C preemergence; details: for Plant response rating, Lambsquarters: scale 0 to 100, 0 no effect, 100 complete control
How it was run: as §1

[10] = system: morningglory (Ipomoea hederacea); assay: Test C preemergence; details: for Plant response rating, Morningglory: scale 0 to 100, 0 no effect, 100 complete control
How it was run: as §1

[11] = system: pigweed (Amaranthus retroflexus); assay: Test C preemergence; details: for Plant response rating, Pigweed: scale 0 to 100, 0 no effect, 100 complete control
How it was run: as §1

soybean (Glycine max) = assay: Test C preemergence; details: for Plant response rating, Soybean: scale 0 to 100, 0 no effect, 100 complete control
How it was run: as §1

[12] = system: velvetleaf (Abutilon theophrasti); assay: Test C preemergence; details: for Plant response rating, Velvetleaf: scale 0 to 100, 0 no effect, 100 complete control
How it was run: as §1

[13] = system: woolly cupgrass (Eriochloa villosa); assay: Test C preemergence; details: for Plant response rating, Cupgrass, Woolly: scale 0 to 100, 0 no effect, 100 complete control; for Plant response rating (0 to 100), Cupgrass, Woolly: preemergence, visual evaluation after 12 to 14 days
How it was run: as §1

[14] = system: yellow nutsedge (Cyperus esculentus); assay: Test C preemergence; details: for Plant response rating, Nutsedge: scale 0 to 100, 0 no effect, 100 complete control
How it was run: as §1

[15] = system: barnyardgrass (Echinochloa crus-galli); assay: Test C flooded paddy test; details: for Barnyardgrass plant response rating: Flooded Paddy, scale 0 to 100, 0 no effect, 100 complete control; for Plant response rating, Barnyardgrass: flooded paddy test, scale 0 to 100 (0 no effect, 100 complete control)
How it was run: (§2)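 Response on a 0-to-100 scale (no effect to complete control) was assessed by eye versus controls. Plants had reached 2 leaves when treated in flooded paddy conditions. The assessment took place after 12–14 days of greenhouse growth.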

[16] = system: duck salad (Heteranthera limosa); assay: Test C flooded paddy test; details: for Ducksalad plant response rating: Flooded Paddy, scale 0 to 100, 0 no effect, 100 complete control; for Plant response rating, Ducksalad: flooded paddy test, scale 0 to 100 (0 no effect, 100 complete control)
How it was run: as §2

[17] = system: smallflower flatsedge (Cyperus difformis); assay: Test C flooded paddy test; details: for Flatsedge plant response rating: Flooded Paddy, scale 0 to 100, 0 no effect, 100 complete control; for Plant response rating, Flatsedge: flooded paddy test, scale 0 to 100 (0 no effect, 100 complete control)
How it was run: as §2

Sunflower [18] = assay: Test C preemergence; details: Rate 500 g/ha, visual evaluation after 12 to 14 days
[19] = preemergence, Rate 500 g/ha, visual evaluation after 12 to 14 days

SMILES: CCC(C)c1ccn(C2CCN(c3cccc(OC(C)C)c3)C2=O)n1 (stereo not drawn) [Compound 83]
- Plant response rating, Nightshade (Nightshade; Rate 62 g/ha): 0
- Plant response rating, Nightshade (Nightshade; Rate 125 g/ha): 50
- Plant response rating, Nightshade (Nightshade; Rate 250 g/ha): 60
- Plant response rating, Sunflower (Sunflower [1]): 30
- Plant response rating, Surinam grass ([2]; Rate 62 g/ha): 40
- Plant response rating, Surinam grass ([2]; Rate 125 g/ha): 50
- Plant response rating (0 to 100), Surinam grass ([2]; Rate 250 g/ha): 90
- Plant response rating (0 to 100), Surinam grass ([2]; Rate 500 g/ha): 100
- Plant response rating, Bermudagrass ([3]; Rate 62 g/ha): 100
- Plant response rating, Bermudagrass ([3]; Rate 125 g/ha): 100
- Plant response rating (0 to 100 where 0 is no effect and 100 is complete control), Bermudagrass ([3]; Rate 250 g/ha): 100
- Plant response rating (0 to 100 where 0 is no effect and 100 is complete control), Bermudagrass ([3]; Rate 500 g/ha): 100
- Plant response rating, Cocklebur ([4]; Rate 62 g/ha): 0
- Plant response rating, Cocklebur ([4]; Rate 125 g/ha): 0
- Plant response rating (0 to 100), Cocklebur ([4]; Rate 250 g/ha): 30
- Plant response rating (0 to 100), Cocklebur ([4]; Rate 500 g/ha): 0
- Plant response rating, Corn (corn (Zea mays); Rate 62 g/ha): 0
- Plant response rating, Corn (corn (Zea mays); Rate 125 g/ha): 0
- Plant response rating (0 to 100), Corn (corn (Zea mays); Rate 250 g/ha): 0
- Plant response rating (0 to 100), Corn (corn (Zea mays); Rate 500 g/ha): 10
- Plant response rating, Crabgrass ([5]; Rate 62 g/ha): 100
- Plant response rating, Crabgrass ([5]; Rate 125 g/ha): 100
- Plant response rating (0 to 100), Crabgrass ([5]; Rate 250 g/ha): 100
- Plant response rating (0 to 100), Crabgrass ([5]; Rate 500 g/ha): 100
- Plant response rating, Foxtail, Giant ([6]; Rate 62 g/ha): 0
- Plant response rating, Foxtail, Giant ([6]; Rate 125 g/ha): 100
- Plant response rating (0 to 100), Foxtail, Giant ([6]; Rate 250 g/ha): 60
- Plant response rating (0 to 100), Foxtail, Giant ([6]; Rate 500 g/ha): 0
- Plant response rating, Goosegrass ([7]; Rate 62 g/ha): 100
- Plant response rating, Goosegrass ([7]; Rate 125 g/ha): 100
- Plant response rating (0 to 100), Goosegrass ([7]; Rate 250 g/ha): 100
- Plant response rating (0 to 100), Goosegrass ([7]; Rate 500 g/ha): 100
- Plant response rating, Johnsongrass ([8]; Rate 62 g/ha): 20
- Plant response rating, Johnsongrass ([8]; Rate 125 g/ha): 30
- Plant response rating (0 to 100), Johnsongrass ([8]; Rate 250 g/ha): 30
- Plant response rating (0 to 100), Johnsongrass ([8]; Rate 500 g/ha): 30
- Plant response rating, Kochia (kochia (Kochia scoparia); Rate 62 g/ha): 60
- Plant response rating, Kochia (kochia (Kochia scoparia); Rate 125 g/ha): 90
- Plant response rating (0 to 100), Kochia (kochia (Kochia scoparia); Rate 250 g/ha): 90
- Plant response rating (0 to 100), Kochia (kochia (Kochia scoparia); Rate 500 g/ha): 100
- Plant response rating, Lambsquarters ([9]; Rate 62 g/ha): 100
- Plant response rating, Lambsquarters ([9]; Rate 125 g/ha): 100
- Plant response rating (0 to 100), Lambsquarters [9, 19]: 100
- Plant response rating, Lambsquarters ([9]; preemergence, Rate 250 g/ha): 100
- Plant response rating, Morningglory ([10]; Rate 62 g/ha): 0
- Plant response rating, Morningglory ([10]; Rate 125 g/ha): 0
- Plant response rating (0 to 100), Morningglory [10, 19]: 0
- Plant response rating, Morningglory ([10]; preemergence, Rate 250 g/ha): 0
- Plant response rating, Pigweed ([11]; Rate 125 g/ha): 50
- Plant response rating (0 to 100), Pigweed [11, 19]: 100
- Plant response rating, Pigweed ([11]; preemergence, Rate 250 g/ha): 100
- Plant response rating, Soybean (soybean (Glycine max); Rate 125 g/ha): 0
- Plant response rating (0 to 100), Soybean (soybean (Glycine max); [19]): 10
- Plant response rating, Soybean (soybean (Glycine max); preemergence, Rate 250 g/ha): 0
- Plant response rating, Velvetleaf ([12]; Rate 125 g/ha): 30
- Plant response rating (0 to 100), Velvetleaf [12, 19]: 40
- Plant response rating, Velvetleaf ([12]; preemergence, Rate 250 g/ha): 0
- Plant response rating, Cupgrass, Woolly ([13]; Rate 62 g/ha): 80
- Plant response rating, Cupgrass, Woolly ([13]; Rate 125 g/ha): 90
- Plant response rating (0 to 100), Cupgrass, Woolly ([13]; Rate 250 g/ha): 100
- Plant response rating (0 to 100), Cupgrass, Woolly ([13]; Rate 500 g/ha): 100
- Plant response rating, Nutsedge ([14]; Rate 62 g/ha): 0
- Plant response rating, Nutsedge ([14]; Rate 125 g/ha): 0
- Plant response rating (0 to 100), Nutsedge [14, 19]: 0
- Plant response rating, Nutsedge ([14]; preemergence, Rate 250 g/ha): 0
- Barnyardgrass plant response rating ([15]; Rate 250 g/ha): 70
- Barnyardgrass plant response rating ([15]; Rate 500 g/ha): 100
- Plant response rating, Barnyardgrass ([15]; Rate 62 g/ha): 60
- Plant response rating, Barnyardgrass ([15]; Rate 125 g/ha): 70
- Ducksalad plant response rating ([16]; Rate 250 g/ha): 100
- Ducksalad plant response rating ([16]; Rate 500 g/ha): 100
- Plant response rating, Ducksalad ([16]; Rate 62 g/ha): 40
- Plant response rating, Ducksalad ([16]; Rate 125 g/ha): 40
- Flatsedge plant response rating ([17]; Rate 250 g/ha): 100
- Flatsedge plant response rating ([17]; Rate 500 g/ha): 100
- Plant response rating, Flatsedge ([17]; Rate 62 g/ha): 90
- Plant response rating, Flatsedge ([17]; Rate 125 g/ha): 100
- Plant response rating (0 to 100), Sunflower (Sunflower [18]): 70
